Laboratory results published in patent US8158828B2, “Nuclear receptor binding agents” (priority 2005, dated 2012).
“Also recorded” adds a separate entry of the source.

Key:
ER-α = molecular target: T1, ER-α (Rattus norvegicus, UniProt P06211); assay: ER-α transactivation, ERE-LUC in COS or 293 cells; type: cell-based; set-up: % estardiol activity, ER-α: dose or concentration left out as unconfirmed; details: for inhibition of estradiol (E2) induced ER-α activity (luciferase expression): with estrogen
T1 sequence (P06211 1-600): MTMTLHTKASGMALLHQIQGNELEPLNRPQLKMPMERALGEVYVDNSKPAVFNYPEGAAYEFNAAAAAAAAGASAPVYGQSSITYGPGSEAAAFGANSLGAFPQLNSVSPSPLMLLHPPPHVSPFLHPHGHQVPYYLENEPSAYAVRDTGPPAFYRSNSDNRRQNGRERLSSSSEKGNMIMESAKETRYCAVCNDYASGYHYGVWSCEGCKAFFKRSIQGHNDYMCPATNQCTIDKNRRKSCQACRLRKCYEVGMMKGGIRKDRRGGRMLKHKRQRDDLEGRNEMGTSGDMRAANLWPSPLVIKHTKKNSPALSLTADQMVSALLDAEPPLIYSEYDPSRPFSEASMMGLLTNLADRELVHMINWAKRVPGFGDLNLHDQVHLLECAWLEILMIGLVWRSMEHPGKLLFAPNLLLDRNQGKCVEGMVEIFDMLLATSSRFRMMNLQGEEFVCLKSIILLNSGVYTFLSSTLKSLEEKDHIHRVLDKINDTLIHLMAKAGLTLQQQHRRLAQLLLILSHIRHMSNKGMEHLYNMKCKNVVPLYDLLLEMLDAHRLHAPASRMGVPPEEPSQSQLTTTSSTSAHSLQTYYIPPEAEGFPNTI

ER-β = molecular target: T2, ER-β (Rattus norvegicus, UniProt Q62986); assay: ER-β transactivation, ERE-LUC in COS or 293 cells; type: cell-based; set-up: % estardiol activity, ER-β: dose or concentration left out as unconfirmed; details: for ER-β LUC expression, compound alone / inhibition of E2-stimulated LUC expression, ER-β: COS or 293 cells; for inhibition of E2-stimulated LUC expression, ER-β: with E2
T2 construct: expressed in transfected cells; host or cells: COS or 293 cells
T2 sequence (Q62986 whole entry): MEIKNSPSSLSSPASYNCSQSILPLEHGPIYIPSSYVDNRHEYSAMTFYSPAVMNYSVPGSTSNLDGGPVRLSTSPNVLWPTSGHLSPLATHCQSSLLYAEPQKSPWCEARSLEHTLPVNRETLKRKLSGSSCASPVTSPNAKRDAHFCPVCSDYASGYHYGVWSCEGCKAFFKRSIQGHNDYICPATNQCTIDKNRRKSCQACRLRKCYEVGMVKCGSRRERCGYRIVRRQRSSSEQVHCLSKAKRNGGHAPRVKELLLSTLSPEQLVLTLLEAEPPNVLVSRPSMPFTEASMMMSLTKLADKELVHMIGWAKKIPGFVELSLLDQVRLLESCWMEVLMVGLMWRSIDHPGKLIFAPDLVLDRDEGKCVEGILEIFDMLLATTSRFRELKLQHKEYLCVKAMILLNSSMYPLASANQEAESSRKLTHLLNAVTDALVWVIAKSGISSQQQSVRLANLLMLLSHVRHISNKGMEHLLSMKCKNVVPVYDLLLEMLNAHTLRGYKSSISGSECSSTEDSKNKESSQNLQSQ

[1] = tested on: TRAP positive multinucleated osteoclasts; assay: TRAP positive multinucleated osteoclasts from bone marrow cells; type: cell-based, rat; details: RANKL and GMCSF, 12 days
Protocol: FIG. 7: Effect of the indicated compounds on TRAP positive multinucleated osteoclasts. Bone marrow cells from rat femur was cultured in Alpha MEM+10% csFBS without phenol red in the presence or absence of 30 ng/ml RANKL and 10 ng/ml GMCSF. The cells were treated for 12 days and were stained for tartarate resistant acid phosphatase activity (TRAP) and multinucleated osteoclasts were counted.
Bone marrow cells isolated from rat femur were cultured in Alpha MEM without phenol red+10% sterile FBS without phenol red in the presence or absence of […] RANKL and 10 ng/ml GMCSF. The cells were treated for 12 days were stained for tartarate resistant acid phosphatase activity (TRAP) positive multinucleated osteoclasts and were counted.

uterus = assay: In vivo estrogenic activity, uterine weight; set-up: species or system rat; details: female rats; for estrogenic activity in terms of uterine weight: compound alone
Protocol: Rats that were administered the vehicle alone served as controls.

SMILES	% estardiol activity, ER-α (ER-α) [%]	ER-α activity (luciferase expression), compound alone (ER-α; COS or 293 cells)	inhibition of estradiol (E2) induced ER-α activity (luciferase expression) (ER-α; COS or 293 cells)	IC50 (ER-α; ER alpha antagonists) [nM]	ER-β LUC expression, compound alone (ER-β)	inhibition of E2-stimulated LUC expression, ER-β (ER-β)	osteoclast differentiation / osteoclast activity [1]	estrogenic activity in terms of uterine weight (uterus)	uterine weight increase, with ICI-182,780 (uterus; with ICI-182,780)	uterine weight, coadministered with estrogen (uterus; with estrogen)	% estardiol activity, ER-β (ER-β) [%]	osteoclast differentiation / osteoclast activity ([1]; hydrochloride)
O=C(c1ccccc1)N(c1ccc(O)cc1)c1ccc(OCCN2CCCCC2)cc1 [Compound 4a, N-(4-hydroxyphenyl)-N-[4-(2-piperidin-1-ylethoxy)-phenyl]-benzamide]	29.9	no effect on ER-α activity; also recorded: neither SERM alone showed any such effect	inhibited the estradiol (E2) induced ER-α activity to basal levels; also recorded: inhibited estrogen stimulated luciferase expression	35	neither 4a nor 4h stimulated LUC expression	inhibited E2-stimulated LUC expression	minimally but dose-dependently suppressed the osteoclast differentiation	exhibited estrogenic activity, in terms of increased uterine weight; also recorded: exhibited estrogenic activity, in vivo	ICI-182,780 reversed 4a and 4g effects on uterine weight increase	an increase in uterine weight was observed	–	–
Cl.O=C(c1ccc(F)cc1)N(c1ccc(O)cc1)c1ccc(OCCN2CCCCC2)cc1 [Compound 4h, N-(4-hydroxyphenyl)-N-[4-(2-piperidin-1-ylethoxy)-phenyl]-4-fluroro-benzamide hydrochloride]	17.4	–	inhibited estrogen stimulated luciferase expression	–	neither 4a nor 4h stimulated LUC expression	inhibited E2-stimulated LUC expression	–	exhibited no estrogenic, or anti-estrogenic activity in uterus	–	–	29.1	minimally but dose-dependently suppressed the osteoclast differentiation; also recorded: highly suppressive of osteoclast activity
